# Experimental data reported in ChEMBL document CHEMBL3822415, “Toward the Validation of Maternal Embryonic Leucine Zipper Kinase: Discovery, Optimization of Highly Potent and Selective Inhibitors, and Preliminary Biology Insight” (J Med Chem, 2016).
# pIC50: −log10 of the molar value.
# Legend:
# [1] = molecular target: T1, Maternal embryonic leucine zipper kinase (Homo sapiens, UniProt Q14680); assay: Inhibition of MELK catalytic domain (unknown origin) preincubated for 20 mins followed by addition of KinEASE STK S1 peptide as substrate in presence of 20 uM ATP measured after 20 mins by time-resolved fluorescence assay
# [2] = molecular target: T1, Maternal embryonic leucine zipper kinase; assay: Inhibition of MELK catalytic domain (unknown origin) preincubated for 20 mins followed by addition of KinEASE STK S1 peptide as substrate in presence of 2 mM ATP measured after 20 mins by time-resolved fluorescence assay
# [3] = molecular target: Mitogen-activated protein kinase kinase kinase kinase 4 (Homo sapiens, UniProt O95819); assay: Inhibition of MAP4K4 (unknown origin)
# [4] = molecular target: T2, Receptor-type tyrosine-protein kinase FLT3 (Homo sapiens, UniProt P36888); assay: Inhibition of FLT3 (unknown origin)
# T2 sequence (P36888 whole entry): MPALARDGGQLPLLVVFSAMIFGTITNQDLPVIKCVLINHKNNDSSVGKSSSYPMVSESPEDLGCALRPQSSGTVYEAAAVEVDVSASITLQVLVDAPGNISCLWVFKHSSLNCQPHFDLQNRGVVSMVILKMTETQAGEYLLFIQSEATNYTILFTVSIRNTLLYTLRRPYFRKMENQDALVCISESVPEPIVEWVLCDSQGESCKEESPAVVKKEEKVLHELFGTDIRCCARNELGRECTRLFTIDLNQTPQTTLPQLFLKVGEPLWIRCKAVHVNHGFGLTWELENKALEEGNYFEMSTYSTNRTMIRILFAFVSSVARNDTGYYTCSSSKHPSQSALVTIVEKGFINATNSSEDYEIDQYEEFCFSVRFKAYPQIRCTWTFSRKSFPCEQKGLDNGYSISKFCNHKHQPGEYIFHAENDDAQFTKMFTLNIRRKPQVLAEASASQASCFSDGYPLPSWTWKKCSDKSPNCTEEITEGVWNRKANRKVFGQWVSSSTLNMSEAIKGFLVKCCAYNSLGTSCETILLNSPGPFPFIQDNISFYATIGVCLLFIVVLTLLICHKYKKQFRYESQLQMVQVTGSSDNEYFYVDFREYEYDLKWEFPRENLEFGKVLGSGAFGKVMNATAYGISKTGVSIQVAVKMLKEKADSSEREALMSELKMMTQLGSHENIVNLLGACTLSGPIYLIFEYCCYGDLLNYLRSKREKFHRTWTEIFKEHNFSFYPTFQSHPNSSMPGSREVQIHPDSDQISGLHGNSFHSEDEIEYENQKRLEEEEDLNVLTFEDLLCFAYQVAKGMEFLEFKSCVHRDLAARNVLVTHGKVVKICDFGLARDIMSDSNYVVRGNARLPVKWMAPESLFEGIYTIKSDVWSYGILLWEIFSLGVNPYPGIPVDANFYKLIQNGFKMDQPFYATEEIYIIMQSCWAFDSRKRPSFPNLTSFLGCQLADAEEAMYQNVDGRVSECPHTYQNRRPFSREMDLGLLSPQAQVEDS
# [5] = molecular target: T3, Platelet-derived growth factor receptor alpha (Homo sapiens, UniProt P16234); assay: Inhibition of PDGFR-alpha (unknown origin)
# [6] = tested on: MDA-MB-468; assay: Antiproliferative activity against MELK-dependent human MDA-MB-468 cells assessed as reduction in cell viability after 7 days by CellTiter-Glo assay; conditions: MDA-MB-468, 168 h
# [7] = tested on: MCF7; assay: Antiproliferative activity against MELK-independent ER-positive human MCF7 cells assessed as reduction in cell viability after 7 days by CellTiter-Glo assay; conditions: MCF7, 168 h
# [8] = Oral bioavailability in C57BL/6 mouse at 10 mg/kg by LC-MS/MS analysis; format: ADME, organism-based; conditions: in vivo
# [9] = molecular target: T3, Platelet-derived growth factor receptor alpha; assay: Inhibition of partial-length human wild type PDGFR-alpha expressed in mammalian expression system by KINOMEscan assay
# [10] = Apparent permeability across apical to basolateral side in human Caco2 cells; format: ADME, cell-based; conditions: Caco-2
# [11] = AUC (0 to 7 hrs) in C57BL/6 mouse at 1 mg/kg, iv by LC-MS/MS analysis; format: ADME, organism-based; set-up: time < 7 hr, dose 1 mg/kg, route intravenous; conditions: in vivo
# [12] = Extraction ratio in mouse microsomes; format: ADME, Microsome
# [13] = tested on: Plasma; assay: Drug uptake in plasma of athymic nude mouse at 120 mg/kg, sc bid; format: ADME, organism-based; conditions: in vivo
# [14] = Half life of the compound; format: physicochemical
# [15] = molecular target: Mast/stem cell growth factor receptor Kit (Homo sapiens, UniProt P10721, A829P); assay: Inhibition of partial-length human KIT A829P mutant expressed in mammalian expression system by KINOMEscan assay
# [16] = molecular target: Receptor-type tyrosine-protein kinase FLT3 (Homo sapiens, UniProt P36888, ITD); assay: Inhibition of partial-length human FLT3 ITD mutant expressed in bacterial expression system by KINOMEscan assay
# [17] = Cmax in C57BL/6 mouse at 10 mg/kg, po by LC-MS/MS analysis; format: ADME, organism-based; set-up: dose 10 mg/kg, route oral; conditions: in vivo
# [18] = AUC (0 to 7 hrs) in C57BL/6 mouse at 30 mg/kg, sc by LC-MS/MS analysis; format: ADME, organism-based; set-up: dose 30 mg/kg, time < 7 hr, route subcutaneous; conditions: in vivo
# [19] = Clearance in C57BL/6 mouse at 1 mg/kg, iv by LC-MS/MS analysis; format: ADME, organism-based; conditions: in vivo
# [20] = Solubility of the compound at pH 6.8; format: physicochemical; conditions: buffer
# [21] = tested on: Plasma; assay: Metabolic stability in mouse plasma measured after 4 hrs; format: ADME, cell-free
# [22] = molecular target: T4, Serine/threonine-protein kinase haspin (Homo sapiens, UniProt Q8TF76); assay: Inhibition of partial-length human wild type HASPIN expressed in mammalian expression system by KINOMEscan assay
# T4 sequence (Q8TF76 whole entry): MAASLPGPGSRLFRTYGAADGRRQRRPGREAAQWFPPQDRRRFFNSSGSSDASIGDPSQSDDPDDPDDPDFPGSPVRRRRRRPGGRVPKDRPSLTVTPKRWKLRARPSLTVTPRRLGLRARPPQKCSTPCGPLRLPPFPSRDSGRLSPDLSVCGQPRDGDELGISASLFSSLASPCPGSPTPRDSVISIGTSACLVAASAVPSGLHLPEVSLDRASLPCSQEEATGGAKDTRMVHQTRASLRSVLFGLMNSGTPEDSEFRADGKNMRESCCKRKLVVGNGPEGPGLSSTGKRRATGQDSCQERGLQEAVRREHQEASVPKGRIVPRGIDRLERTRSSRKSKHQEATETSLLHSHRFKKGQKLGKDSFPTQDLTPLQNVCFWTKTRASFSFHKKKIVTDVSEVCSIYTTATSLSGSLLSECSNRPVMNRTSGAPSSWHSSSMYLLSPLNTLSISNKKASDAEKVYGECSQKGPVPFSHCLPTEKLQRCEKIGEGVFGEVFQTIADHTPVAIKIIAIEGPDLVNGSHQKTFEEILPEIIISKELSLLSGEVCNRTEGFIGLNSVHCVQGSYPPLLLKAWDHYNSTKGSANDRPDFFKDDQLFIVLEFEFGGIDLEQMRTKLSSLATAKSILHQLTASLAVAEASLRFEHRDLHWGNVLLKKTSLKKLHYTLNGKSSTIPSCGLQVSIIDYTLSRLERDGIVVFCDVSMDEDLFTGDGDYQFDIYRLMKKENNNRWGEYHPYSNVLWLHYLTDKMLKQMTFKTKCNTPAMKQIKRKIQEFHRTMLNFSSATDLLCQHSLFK
# [23] = Cmax in C57BL/6 mouse at 30 mg/kg, sc by LC-MS/MS analysis; format: ADME, organism-based; set-up: dose 30 mg/kg, route subcutaneous; conditions: in vivo
# [24] = AUC (0 to 7 hrs) in C57BL/6 mouse at 10 mg/kg, po by LC-MS/MS analysis; format: ADME, organism-based; set-up: time < 7 hr, dose 10 mg/kg, route oral; conditions: in vivo
# [25] = Volume of distribution at steady state in C57BL/6 mouse at 1 mg/kg, iv by LC-MS/MS analysis; format: ADME, organism-based; conditions: in vivo, read-out: Vdss
# [26] = tested on: Plasma; assay: Drug uptake in plasma of athymic nude mouse at 120 to 240 mg/kg, sc qd; format: ADME, organism-based; conditions: in vivo
# [27] = molecular target: T1, Maternal embryonic leucine zipper kinase; assay: Inhibition of full-length MELK (unknown origin) preincubated for 20 mins followed by addition of KinEASE STK S1 peptide as substrate in presence of 20 uM ATP measured after 20 mins by time-resolved fluorescence assay
# [28] = Tmax in C57BL/6 mouse at 10 mg/kg, po by LC-MS/MS analysis; format: ADME, organism-based; conditions: in vivo
# [29] = molecular target: T1, Maternal embryonic leucine zipper kinase; assay: Binding affinity to MELK (unknown origin) expressed in Escherichia coli by SPR analysis
# [30] = Tmax in C57BL/6 mouse at 30 mg/kg, sc by LC-MS/MS analysis; format: ADME, organism-based; conditions: in vivo
# [31] = AUC (0 to 7 hrs) in C57BL/6 mouse at 5 mg/kg, po by LC-MS/MS analysis; format: ADME, organism-based; set-up: dose 5 mg/kg, time < 7 hr, route oral; conditions: in vivo
# [32] = Tmax in C57BL/6 mouse at 5 mg/kg, po by LC-MS/MS analysis; format: ADME, organism-based; conditions: in vivo
# [33] = Cmax in C57BL/6 mouse at 5 mg/kg, po by LC-MS/MS analysis; format: ADME, organism-based; set-up: dose 5 mg/kg, route oral; conditions: in vivo
# [34] = Oral bioavailability in C57BL/6 mouse at 5 mg/kg by LC-MS/MS analysis; format: ADME, organism-based; conditions: in vivo
# T1 sequence (Q14680 whole entry, the tested form may be a part): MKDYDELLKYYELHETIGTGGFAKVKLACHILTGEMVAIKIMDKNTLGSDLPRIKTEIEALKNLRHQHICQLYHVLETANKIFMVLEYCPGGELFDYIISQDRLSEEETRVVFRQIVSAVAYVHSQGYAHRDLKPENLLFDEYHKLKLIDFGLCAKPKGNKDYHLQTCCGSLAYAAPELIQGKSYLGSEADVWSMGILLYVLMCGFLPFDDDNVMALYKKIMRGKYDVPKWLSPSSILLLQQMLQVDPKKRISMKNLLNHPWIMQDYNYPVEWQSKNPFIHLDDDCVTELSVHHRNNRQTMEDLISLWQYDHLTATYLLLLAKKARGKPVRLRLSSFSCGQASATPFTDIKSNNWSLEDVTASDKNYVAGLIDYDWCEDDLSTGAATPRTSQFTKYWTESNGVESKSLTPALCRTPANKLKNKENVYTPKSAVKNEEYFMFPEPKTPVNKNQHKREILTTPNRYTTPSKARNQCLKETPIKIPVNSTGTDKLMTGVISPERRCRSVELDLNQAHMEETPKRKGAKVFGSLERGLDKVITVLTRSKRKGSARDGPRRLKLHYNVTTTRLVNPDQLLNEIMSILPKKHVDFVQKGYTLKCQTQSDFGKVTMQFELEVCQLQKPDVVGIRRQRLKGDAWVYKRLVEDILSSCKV
# T3 sequence (P16234 whole entry): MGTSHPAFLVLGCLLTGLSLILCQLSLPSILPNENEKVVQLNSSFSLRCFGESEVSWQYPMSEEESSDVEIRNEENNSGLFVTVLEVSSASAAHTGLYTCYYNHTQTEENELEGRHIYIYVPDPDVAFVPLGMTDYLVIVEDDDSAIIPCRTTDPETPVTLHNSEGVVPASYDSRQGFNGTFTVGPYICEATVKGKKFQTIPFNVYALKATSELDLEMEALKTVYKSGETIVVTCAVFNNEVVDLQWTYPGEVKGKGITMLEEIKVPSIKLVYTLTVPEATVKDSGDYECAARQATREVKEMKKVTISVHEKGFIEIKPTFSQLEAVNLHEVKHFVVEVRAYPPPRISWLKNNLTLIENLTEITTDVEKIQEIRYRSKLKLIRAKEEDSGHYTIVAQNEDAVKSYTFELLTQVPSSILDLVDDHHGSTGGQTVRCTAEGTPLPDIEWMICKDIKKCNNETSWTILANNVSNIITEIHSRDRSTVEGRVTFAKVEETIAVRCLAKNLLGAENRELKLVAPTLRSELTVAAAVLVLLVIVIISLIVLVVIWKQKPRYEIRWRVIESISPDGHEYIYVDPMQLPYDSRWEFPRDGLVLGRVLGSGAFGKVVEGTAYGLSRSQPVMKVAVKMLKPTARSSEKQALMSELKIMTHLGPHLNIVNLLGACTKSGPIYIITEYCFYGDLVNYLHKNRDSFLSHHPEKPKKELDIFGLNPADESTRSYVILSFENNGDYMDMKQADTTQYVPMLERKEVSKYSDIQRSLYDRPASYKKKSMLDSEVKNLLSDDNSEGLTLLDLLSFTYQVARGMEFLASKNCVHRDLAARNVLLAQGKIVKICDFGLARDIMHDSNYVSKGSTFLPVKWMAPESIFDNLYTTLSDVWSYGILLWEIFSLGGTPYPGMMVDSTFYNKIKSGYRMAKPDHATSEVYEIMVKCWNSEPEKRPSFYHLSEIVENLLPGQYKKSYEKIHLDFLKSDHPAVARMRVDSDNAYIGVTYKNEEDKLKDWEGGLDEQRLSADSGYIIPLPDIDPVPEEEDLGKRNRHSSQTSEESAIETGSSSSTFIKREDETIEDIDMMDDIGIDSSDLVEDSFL
# Sequence of Mast/stem cell growth factor receptor Kit (P10721 26-976 A829P limits assumed): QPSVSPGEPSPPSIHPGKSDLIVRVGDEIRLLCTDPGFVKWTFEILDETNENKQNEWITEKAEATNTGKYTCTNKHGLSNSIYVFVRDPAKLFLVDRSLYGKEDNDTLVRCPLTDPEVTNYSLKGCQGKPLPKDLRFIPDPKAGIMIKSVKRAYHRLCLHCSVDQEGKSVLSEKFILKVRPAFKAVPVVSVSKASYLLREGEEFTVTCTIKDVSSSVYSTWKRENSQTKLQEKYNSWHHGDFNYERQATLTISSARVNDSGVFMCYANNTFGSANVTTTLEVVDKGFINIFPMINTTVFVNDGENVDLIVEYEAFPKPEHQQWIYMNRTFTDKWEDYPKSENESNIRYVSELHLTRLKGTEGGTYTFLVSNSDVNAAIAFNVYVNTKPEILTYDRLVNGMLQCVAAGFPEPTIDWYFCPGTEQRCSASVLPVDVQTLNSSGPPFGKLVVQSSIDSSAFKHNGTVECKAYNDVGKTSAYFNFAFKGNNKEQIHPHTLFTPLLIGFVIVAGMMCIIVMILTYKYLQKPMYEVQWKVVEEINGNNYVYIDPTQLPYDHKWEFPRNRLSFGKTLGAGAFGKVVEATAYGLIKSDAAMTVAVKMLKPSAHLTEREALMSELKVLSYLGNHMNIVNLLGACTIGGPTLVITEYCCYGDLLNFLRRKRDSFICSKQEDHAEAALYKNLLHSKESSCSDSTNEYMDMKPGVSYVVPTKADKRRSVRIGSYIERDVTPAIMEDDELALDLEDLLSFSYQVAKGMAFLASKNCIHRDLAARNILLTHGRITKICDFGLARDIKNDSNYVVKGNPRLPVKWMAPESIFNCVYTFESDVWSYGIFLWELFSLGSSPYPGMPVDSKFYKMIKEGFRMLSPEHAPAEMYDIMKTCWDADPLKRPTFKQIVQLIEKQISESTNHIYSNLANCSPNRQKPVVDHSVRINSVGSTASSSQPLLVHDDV
# Sequence of Mitogen-activated protein kinase kinase kinase kinase 4 (O95819 whole entry): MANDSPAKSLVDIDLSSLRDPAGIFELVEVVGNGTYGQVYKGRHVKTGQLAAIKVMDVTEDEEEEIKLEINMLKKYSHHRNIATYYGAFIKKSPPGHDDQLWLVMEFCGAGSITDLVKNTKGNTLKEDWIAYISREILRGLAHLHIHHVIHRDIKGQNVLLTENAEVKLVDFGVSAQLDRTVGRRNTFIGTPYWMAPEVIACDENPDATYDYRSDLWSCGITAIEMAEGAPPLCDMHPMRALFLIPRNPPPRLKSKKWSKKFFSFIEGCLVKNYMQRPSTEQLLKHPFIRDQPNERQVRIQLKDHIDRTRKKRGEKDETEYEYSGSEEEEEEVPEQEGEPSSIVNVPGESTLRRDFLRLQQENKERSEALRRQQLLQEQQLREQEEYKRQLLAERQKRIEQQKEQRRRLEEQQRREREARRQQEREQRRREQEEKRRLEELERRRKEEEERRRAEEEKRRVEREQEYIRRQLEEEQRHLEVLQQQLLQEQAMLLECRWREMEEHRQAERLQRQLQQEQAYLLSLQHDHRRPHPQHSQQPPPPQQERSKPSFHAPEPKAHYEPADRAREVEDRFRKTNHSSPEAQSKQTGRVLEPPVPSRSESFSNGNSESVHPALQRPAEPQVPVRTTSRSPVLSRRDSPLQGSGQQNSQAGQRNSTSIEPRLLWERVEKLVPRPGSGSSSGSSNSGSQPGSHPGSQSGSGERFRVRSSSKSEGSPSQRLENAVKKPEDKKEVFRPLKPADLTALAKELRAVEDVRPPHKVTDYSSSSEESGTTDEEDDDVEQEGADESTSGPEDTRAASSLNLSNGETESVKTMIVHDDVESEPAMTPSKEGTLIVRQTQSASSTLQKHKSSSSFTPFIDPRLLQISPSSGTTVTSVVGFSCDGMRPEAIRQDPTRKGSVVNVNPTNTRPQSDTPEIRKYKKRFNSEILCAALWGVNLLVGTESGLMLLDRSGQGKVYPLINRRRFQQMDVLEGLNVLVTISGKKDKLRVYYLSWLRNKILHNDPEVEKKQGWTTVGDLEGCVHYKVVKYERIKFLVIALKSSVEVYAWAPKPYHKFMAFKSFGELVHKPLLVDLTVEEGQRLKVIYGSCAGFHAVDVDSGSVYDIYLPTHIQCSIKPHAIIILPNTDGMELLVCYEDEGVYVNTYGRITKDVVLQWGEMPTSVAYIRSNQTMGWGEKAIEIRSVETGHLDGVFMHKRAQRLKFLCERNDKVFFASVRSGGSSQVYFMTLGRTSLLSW
structure (smiles),measurement,setting,value
CN1CCN(c2ccc(-n3cc(-c4ccncc4OC4CCNCC4)cn3)cc2)CC1,pIC50,[1],8.22
same,pIC50,[2],6.59
CS(=O)(=O)c1ccc(-n2cc(-c3ccccc3)cn2)cc1,pIC50,[1],< 4.70
Fc1ccccc1-n1cc(-c2ccncc2OCC2CCNCC2)cn1,pIC50,[1],7.89
c1cc(-c2cnn(-c3ccc(N4CCOCC4)cc3)c2)c(OCC2CCNCC2)cn1,pIC50,[1],8.22
same,pIC50,[2],6.68
O=C(NCc1ccccn1)c1ccc(-n2cc(-c3ccncc3)cn2)cc1,pIC50,[3],> 5.30
same,pIC50,[1],6.74
same,pIC50,[2],4.73
same,pIC50,[4],> 5.30
same,pIC50,[5],> 5.30
CN1CCN(c2ccc(-n3cc(-c4ccncc4)cn3)cc2)CC1,pIC50,[1],7.10
same,pIC50,[2],5.30
COc1cnccc1-c1cnn(-c2ccc(N3CCN(C)CC3)cc2)c1,pIC50,[1],7.19
CN1CCN(c2ccc(-n3cc(-c4ccncc4OC4CCCCC4)cn3)cc2)CC1,pIC50,[1],8.40
same,pIC50,[2],6.82
CC(C)COc1cnccc1-c1cnn(-c2ccc(N3CCN(C)CC3)cc2)c1,pIC50,[1],8.05
same,pIC50,[2],6.39
CS(=O)(=O)c1ccc(-n2cc(-c3ccncc3)cn2)cc1,pIC50,[1],6.40
CN1CCN(c2ccc(-n3cc(-c4ccncc4OC[C@H]4CC[C@H](N)CC4)cn3)cc2)CC1,pIC50,[1],9.00
same,pIC50,[6],7.22
same,pIC50,[2],7.24
same,pIC50,[7],5.92
CN1CCN(c2ccc(-n3cc(-c4ccncc4OCC4CCNCC4)cn3)cc2)CC1,bioavailability,[8],3.6%
same,pIC50,[9],6.38
same,Papp A→B,[10],14 ×10⁻⁶ cm/s
same,AUC(0-t) at 7 h,[11],0.23 µM·h
same,hepatic extraction ratio,[12],0.75
same,pIC50,[1],8.70
same,Drug uptake,[13],Active
same,half-life,[14],1 min
same,pIC50,[15],< 5.00
same,pIC50,[16],6.74
same,Cmax,[17],34 nM
same,pIC50,[6],6.96
same,AUC(0-t) at 7 h,[18],18.9 µM·h
same,clearance,[19],114 mL/min/kg
same,solubility,[20],220 µg/mL
same,Stability,[21],Stable
same,pIC50,[22],6.72
same,Cmax,[23],6560 nM
same,pIC50,[2],6.85
same,pIC50,[7],5.43
same,AUC(0-t) at 7 h,[24],0.0832 µM·h
same,Vd,[25],40.8 L/kg
same,Drug uptake,[26],Active
same,pIC50,[27],8.30
same,Tmax,[28],30 min
same,pIC50,[29],8.70
same,Tmax,[30],24 min
c1ccc(-n2cc(-c3ccncc3OCC3CCNCC3)cn2)cc1,AUC(0-t) at 7 h,[31],3.44 µM·h
same,pIC50,[1],7.44
same,Tmax,[32],102 min
same,Cmax,[33],1030 nM
same,bioavailability,[34],43%
CN1CCN(c2ccc(-n3cc(-c4ccncc4OCc4ccncc4)cn3)cc2)CC1,pIC50,[1],7.60
same,pIC50,[2],5.84
CN1CCN(c2ccc(-n3cc(-c4ccncc4F)cn3)cc2)CC1,pIC50,[1],7.15
same,pIC50,[2],5.30
CS(=O)(=O)c1ccc(-n2cc(-c3ccc(O)cc3)cn2)cc1,pIC50,[1],6.28
CN1CCN(c2ccc(-c3cc(-c4ccccc4)n[nH]3)cc2)CC1,pIC50,[1],6.17
Fc1cc(N2CCOCC2)ccc1-n1cc(-c2ccncc2OCC2CCNCC2)cn1,pIC50,[1],9.52
